Reference: PubChem BioAssay (NCI)
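Cultured in 96-well plates, cells were exposed to test compound for 48 hours across five concentrations. GI50 marks 50% less growth. At the TGI there is no net growth.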

Columns and labels:
Experiment in all cases: growth of human tumour cells (NCI), 48 h
[1] = tested on: COLO 205 colon
[2] = tested on: HCT-116 colon
[3] = tested on: NCI-H226 lung
[4] = tested on: RXF 393 renal
[5] = tested on: SK-MEL-2 melanoma
[6] = tested on: SNB-19 CNS
[7] = tested on: UACC-257 melanoma
[8] = tested on: HOP-92 NSCLC
[9] = tested on: NCI/ADR-RES ovarian
[10] = tested on: T-47D breast

Structure (SMILES) | TGI [1] [µM] | TGI [2] [µM] | TGI [3] [µM] | TGI [4] [µM] | TGI [5] [µM] | TGI [6] [µM] | TGI [7] [µM] | TGI [8] [µM] | TGI [9] [µM] | TGI [10] [µM] | GI50 [2] [µM] | GI50 [8] [µM] | GI50 [3] [µM] | GI50 [9] [µM] | GI50 [4] [µM] | GI50 [5] [µM] | GI50 [6] [µM] | GI50 [7] [µM] | GI50 [10] [µM] | GI50 [1] [µM]
COC(=O)CC(NC(=O)OCc1ccccc1)C(C(=O)OCc1ccccc1)C(C)(OC)OC (stereo not given) | 34.1 | > 100 | 97.5 | 96.9 | 36.5 | > 100 | 85.6 | – | – | – | – | – | – | – | – | – | – | – | – | –
COc1ccc(C(=O)C(CC2C(=O)NC(=O)NC2=O)c2ccc(OC)cc2)cc1 (stereo not given) | > 100 | > 100 | > 100 | > 100 | > 100 | > 100 | > 100 | – | – | – | – | – | – | – | – | – | – | – | – | –
C[C@]12CC[C@H](O)CC1=CC[C@@H]1C2CC[C@]2(C)Nc3c(cnn3-c3ccccc3)CC12 (stereo not given in full) | – | 12.2 | 56.1 | 4.01 | 48.2 | – | 15 | – | – | – | – | – | – | – | – | – | – | – | – | –
COc1cc(C)c(C2NC(=O)c3ccccc3N2)cc1C (stereo not given) | 4.64 | 43.1 | 16.5 | 8.61 | 0.924 | – | > 100 | > 86.5 | 0.679 | > 100 | – | – | – | – | – | – | – | – | – | –
c1ccc2c(-c3nc(-c4c[nH]c5ccncc45)cs3)c[nH]c2c1 | – | 3.19 | 17.7 | 3.03 | 3.95 | 5.12 | 3.43 | 3.28 | 15.5 | – | 1.71 | 1.44 | 3.24 | 3.2 | 1.55 | 2.09 | 2.18 | 1.8 | – | –
CCOC(=O)N1CCc2cc(OC)c(OC)cc2/C1=C\c1ccc(OC)c(OC)c1 | 59.9 | 40.4 | 61.2 | 54.2 | 67.6 | > 100 | 53.8 | 56.1 | – | – | – | – | – | – | – | – | – | – | – | –
Cc1cc(N(CCC#N)CCC#N)ccc1N=Nc1ccc(Br)cc1 | > 100 | > 100 | > 46.5 | 25.8 | 48.9 | > 57.6 | > 100 | – | – | – | – | – | – | – | – | – | – | – | – | –
O=C(Nc1ccc(-c2nc(-c3cccc(OCCN4CCOCC4)c3)c(-c3ccnc(Br)c3)[nH]2)cc1)c1ccccc1 | – | > 100 | > 100 | 1.12 | > 100 | 9.07 | 6.36 | 8.16 | > 100 | > 100 | 2.58 | 2.01 | 2.94 | 5.2 | 0.309 | 2.75 | 2.19 | 2.23 | 2.22 | –
C1=C2CCCC3=Cc4ccccc4OC23Oc2ccccc21 | 5.04 | > 100 | > 100 | 8.77 | 25.6 | > 100 | > 100 | – | 55.7 | > 100 | 4.35 | – | > 100 | 3.18 | 2.85 | 4.31 | 4.01 | 5.49 | 2.46 | 2.24
Cc1ccc(S(=O)(=O)c2ccccc2[N+](=O)[O-])cc1 | – | > 100 | > 100 | > 100 | > 100 | – | > 100 | – | – | – | – | – | – | – | – | – | – | – | – | –
